Measured values reported in BindingDB's records for doi:10.1016/j.chembiol.2005.07.009 (University of Dundee, 2005).

Legend:
[1] = target: cAMP-specific 3',5'-cyclic phosphodiesterase 4A (Homo sapiens, UniProt P27815); experiment: PDE 4A Assay; settings: pH 7.5; 30 °C
Experimental: Phosphodiesterase 4A (PDE4A) was assayed using an Sf9-expressed GST-fusion, and activity was monitored by hydrolysis of [3H]cAMP to [3H]AMP using the PDE-SPA kit from Amersham Pharmacia Biotech.

Endochitinase B1 [A217G] = Endochitinase B1 [A217G] (Aspergillus fumigatus, UniProt Q873X9, A217G); experiment: Enzyme Inhibition Assay
Endochitinase B1 [D175A] = Endochitinase B1 [D175A] (Aspergillus fumigatus, UniProt Q873X9, D175A); experiment: Enzyme Inhibition Assay
Endochitinase B1 [D246A] = Endochitinase B1 [D246A] (Aspergillus fumigatus, UniProt Q873X9, D246A); experiment: Enzyme Inhibition Assay
Endochitinase B1 [E177A] = Endochitinase B1 [E177A] (Aspergillus fumigatus, UniProt Q873X9, E177A); experiment: Enzyme Inhibition Assay
Endochitinase B1 [E322A] = Endochitinase B1 [E322A] (Aspergillus fumigatus, UniProt Q873X9, E322A); experiment: Enzyme Inhibition Assay
Endochitinase B1 [M243A] = Endochitinase B1 [M243A] (Aspergillus fumigatus, UniProt Q873X9, M243A); experiment: Enzyme Inhibition Assay
Endochitinase B1 [R301K] = Endochitinase B1 [R301K] (Aspergillus fumigatus, UniProt Q873X9, R301K); experiment: Enzyme Inhibition Assay
Endochitinase B1 [T138A] = Endochitinase B1 [T138A] (Aspergillus fumigatus, UniProt Q873X9, T138A); experiment: Enzyme Inhibition Assay
Endochitinase B1 [Y245F] = Endochitinase B1 [Y245F] (Aspergillus fumigatus, UniProt Q873X9, Y245F); experiment: Enzyme Inhibition Assay

cAMP-specific 3',5'-cyclic phosphodiesterase 4A, sequence (P27815 whole entry, the tested form may be a part): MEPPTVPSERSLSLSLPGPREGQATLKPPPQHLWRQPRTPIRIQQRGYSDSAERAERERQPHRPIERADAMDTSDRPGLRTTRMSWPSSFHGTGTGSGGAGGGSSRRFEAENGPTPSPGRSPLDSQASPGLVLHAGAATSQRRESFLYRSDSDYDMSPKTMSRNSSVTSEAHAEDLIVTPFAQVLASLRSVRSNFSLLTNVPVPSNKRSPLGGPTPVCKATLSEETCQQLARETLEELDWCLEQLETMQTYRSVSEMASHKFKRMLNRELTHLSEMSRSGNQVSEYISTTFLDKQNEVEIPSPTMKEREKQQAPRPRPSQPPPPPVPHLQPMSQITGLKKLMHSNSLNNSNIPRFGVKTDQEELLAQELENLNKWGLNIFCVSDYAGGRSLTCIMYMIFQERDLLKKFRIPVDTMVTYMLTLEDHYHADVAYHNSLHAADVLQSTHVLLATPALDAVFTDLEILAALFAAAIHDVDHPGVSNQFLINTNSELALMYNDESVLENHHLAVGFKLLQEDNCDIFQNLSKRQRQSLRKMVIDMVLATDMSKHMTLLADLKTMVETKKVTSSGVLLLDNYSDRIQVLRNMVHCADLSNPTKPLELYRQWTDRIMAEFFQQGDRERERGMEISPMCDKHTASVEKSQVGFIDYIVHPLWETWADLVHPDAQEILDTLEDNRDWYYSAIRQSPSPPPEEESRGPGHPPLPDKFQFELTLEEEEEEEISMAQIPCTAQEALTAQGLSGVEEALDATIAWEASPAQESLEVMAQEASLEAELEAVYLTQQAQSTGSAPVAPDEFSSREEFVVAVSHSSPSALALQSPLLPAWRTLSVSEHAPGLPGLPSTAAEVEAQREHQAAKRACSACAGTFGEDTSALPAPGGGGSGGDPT

SMILES	IC50 [1]	Kd (Endochitinase B1 [A217G])	Kd (Endochitinase B1 [D175A])	Kd (Endochitinase B1 [D246A])	Kd (Endochitinase B1 [E177A])	Kd (Endochitinase B1 [E322A])	Kd (Endochitinase B1 [M243A])	Kd (Endochitinase B1 [R301K])	Kd (Endochitinase B1 [T138A])	Kd (Endochitinase B1 [Y245F])
Cn1c(=O)c2c(ncn2C)n(C)c1=O	747 µM									
CC(=O)CCCCn1c(=O)c2c(ncn2C)n(C)c1=O [1-(5-Oxohexyl)theobromine (pentoxifylline)]		77 µM	100 µM	62 µM	36 µM	45 µM	18 µM	17 µM	65 µM	64 µM
